Legend:
[1] = test system: STAT1 and phosphor-Tyr701-STAT1 (pSTAT1); assay: STAT1 and pSTAT1 Western blot in CT-26 cells; format: cell-based
Method: (§1) FIG. 4B provides of Western blots in FIG. 4A. Quantification was performed using BioRad ImageLab software. Curves were fit using four parameter nonlinear regression in GraphPad Prism. STAT1 and pSTAT1 levels were normalized to tubulin. Data was from 3 biological replicates. […] Treatment was as in FIG. 4A. Note: tubulin blot was the same as in FIG. 4A since samples were run on the same nitrocellulose membrane for western blot analysis. SE=short exposure; LE=long exposure. […] Treatment was as in FIG. 4A. Note: tubulin blot is the same as in FIG. 4A since samples were run on the same nitrocellulose membrane for western blot analysis. […] Quantification was performed using BioRad ImageLab software. Curves fitting was done using a four parameter nonlinear regression in GraphPad Prism. PARP7 levels were normalized to tubulin. Data was from 3 biological replicates. […] IFN-0 levels were determined by ELISA (PBL Assay Science). Statistical analysis was performed as one-way ANOVA in GraphPad Prism. ****=p<0.001. […] Luciferase levels were measured using a luciferase assay reagent (Promega). […] Treatment was same as in FIG. 10A. Note: tubulin blot is the same as in FIG. 10A since samples were run on the same nitrocellulose membrane for western blot analysis. […] Treatment was same as in FIG. 10A. […] Proteins were detected by Western blot using specific antibodies.

[2] = test system: STING; assay: STING degradation and signaling Western blot in CT-26 cells; format: cell-based
Method: as §1

[3] = target: T1, PARP7 (Mus musculus (Mouse), UniProt Q8C1B2); assay: PARP7 protein levels Western blot in CT-26 cells; format: cell-based
Method: as §1

[4] = test system: IFN-β; assay: IFN-β ELISA in CT-26 cells; format: cell-based; settings: 300 nM, 16 h, with or without STING inhibitor H-151 (500 nM)
Method: (§2) FIG. 4B provides of Western blots in FIG. 4A. Quantification was performed using BioRad ImageLab software. Curves were fit using four parameter nonlinear regression in GraphPad Prism. STAT1 and pSTAT1 levels were normalized to tubulin. Data was from 3 biological replicates. […] Treatment was as in FIG. 4A. Note: tubulin blot was the same as in FIG. 4A since samples were run on the same nitrocellulose membrane for western blot analysis. SE=short exposure; LE=long exposure. […] Treatment was as in FIG. 4A. Note: tubulin blot is the same as in FIG. 4A since samples were run on the same nitrocellulose membrane for western blot analysis. […] Quantification was performed using BioRad ImageLab software. Curves fitting was done using a four parameter nonlinear regression in GraphPad Prism. PARP7 levels were normalized to tubulin. Data was from 3 biological replicates. […] IFN-0 levels were determined by ELISA (PBL Assay Science). Statistical analysis was performed as one-way ANOVA in GraphPad Prism. ****=p<0.001. […] Luciferase levels were measured using a luciferase assay reagent (Promega).

[5] = test system: type I interferon reporter; assay: IRSE luciferase reporter in CT-26 cells; format: cell-based; settings: CT-26 cells stably expressing IRSE luciferase reporter, 16 h
Method: as §2

[6] = target: HiBiT-PARP7 (Mus musculus (Mouse), UniProt Q8C1B2); assay: Nuclear PARP7 immunofluorescence in HiBiT-PARP7 knockin CT-26 cells; format: cell-based; settings: HiBiT-PARP7 KI CT-26 cells, 300 nM, 18 h
[7] = target: T1, PARP7; assay: Cell fractionation and PARP7 Western blot in CT-26 cells; format: cell-based; settings: 300 nM, 18 h, fractionation
[8] = target: GFP-PARP7 (Homo sapiens (Human), UniProt Q7Z3E1); assay: Live cell imaging of GFP-PARP7 in HeLa cells; format: cell-based; settings: HeLa cells overexpressing GFP-PARP7 and mRuby2-Nup90, 300 nM
[9] = test system: NCI-H1373 cells; assay: Cell Titer-Glo viability assay in NCI-H1373 cells; format: cell-based; settings: 6 d treatment, increasing concentrations
Source text: Curves were fit using three parameter a nonlinear regression in GraphPad Prism.

[10] = test system: NCI-H1373 cells; assay: Cell Titer-Glo viability, NCI-H1373; format: cell-based; settings: Homo sapiens, NCI-H1373, 144 h; 6 days, CellTiter-Glo
Method: NCI-H1373 cells were seeded in a white 96-well plate (Corning) at a density of 1,000 cells per well. After 24 hours, cells were treated with PARP7 inhibitors and incubated at 37° C. for 6 days. Cell viability was assessed using CellTiter-Glo (CTG) 2.0 (Promega). After addition of the CTG reagent (following manufacturer protocol), the plate was incubated on an orbital shaker for 15 min (protected from light) at room temperature. Chemiluminescence was measured on a Spectra Max i3 (Molecular Devices), normalized to DMSO-treated wells, and IC50 values were calculated by non-linear regression (three-parameter fit) analysis using Prism 9 (GraphPad).

[11] = test system: STAT1 and STAT1 Tyr701 phosphorylation (pSTAT1); assay: STAT1 and pSTAT1 (Tyr701) western blot in CT-26 cells; format: cell-based, mouse; settings: increasing concentrations, 16 h
[12] = target: endogenous PARP7 (Mus musculus (Mouse), UniProt Q8C1B2); assay: Endogenous PARP7 protein levels in CT-26 cells (western blot); format: cell-based
[13] = test system: secreted IFN-β; assay: Interferon-β ELISA, CT-26 cells; format: cell-based, mouse
Method: CT-26 cells were seeded into a 6-well plate. After 24 h, the growth media was replaced, and cells were treated with inhibitors. After treatment, growth media was harvested and assayed with PBL Verikine Mouse IFN-β ELISA kit following the manufacturer protocol.

[14] = test system: interferon-sensitive response element (ISRE)-firefly luciferase; assay: ISRE luciferase assay, ISRE-Luc CT-26 cells; format: cell-based, mouse; settings: 16 h, saturating doses
Method: 10,000 ISRE-Luc CT-26 or WT CT-26 cells were seeded into wells of a white 96-well plate and grown overnight. Compounds were serial diluted at 1000× concentration in DMSO. For dosing, compound dose response curves were dilute 1:100 in culture media, then added at 1:10 dilution to cell culture. Final DMSO concentration was 0.1%. Cells were incubated in treatment for 18 hours. Following treatment, the plates were developed using ONE-Glo Luciferase Assay system (Promega) per manufacturer directions. The luminescence signal was read on a Spectra Max i3 (Molecular Devices) plate reader with a 2 second integration time. WT CT-26 signal was background subtracted and curves were fit using a four-parameter […] regression in GraphPad Prism 9.

[15] = target: His-GST-PARP7 (Homo sapiens (Human), UniProt Q7Z3E1); assay: PARP7 biochemical assay; settings: read-out: PARP7 IC50
[16] = target: PARP1 (Homo sapiens (Human), UniProt P09874); assay: PARP1 biochemical assay
[17] = target: PARP2 (Homo sapiens (Human), UniProt Q9UGN5); assay: PARP2 biochemical assay; settings: read-out: PARP2 IC50
[18] = test system: NCI-H1373 (human lung adenocarcinoma) cells; assay: Cell proliferation assay (CellTiter-Glo), NCI-H1373; format: cell-based; settings: Homo sapiens, NCI-H1373, 144 h; 6 days, CellTiter-Glo; read-out: NCI-H1373 GI50
[19] = test system: HARA (human lung squamous cell carcinoma) cells; assay: Cell proliferation assay (CellTiter-Glo), HARA; format: cell-based; settings: Homo sapiens, 144 h; 6 days, CellTiter-Glo; read-out: HARA GI50
[20] = test system: CT26 (mouse colon adenocarcinoma) cells; assay: Cell proliferation assay (CellTiter-Glo), CT26; format: cell-based; settings: Mus musculus, CT26, 144 h, 6 days
[21] = test system: STING, pTBK1, pIRF3; assay: STING, pTBK1 and pIRF3 western blot in CT-26 cells; format: cell-based, mouse
[22] = increasing concentrations, 16 h

PARP1, sequence (P09874 whole entry, species assumed): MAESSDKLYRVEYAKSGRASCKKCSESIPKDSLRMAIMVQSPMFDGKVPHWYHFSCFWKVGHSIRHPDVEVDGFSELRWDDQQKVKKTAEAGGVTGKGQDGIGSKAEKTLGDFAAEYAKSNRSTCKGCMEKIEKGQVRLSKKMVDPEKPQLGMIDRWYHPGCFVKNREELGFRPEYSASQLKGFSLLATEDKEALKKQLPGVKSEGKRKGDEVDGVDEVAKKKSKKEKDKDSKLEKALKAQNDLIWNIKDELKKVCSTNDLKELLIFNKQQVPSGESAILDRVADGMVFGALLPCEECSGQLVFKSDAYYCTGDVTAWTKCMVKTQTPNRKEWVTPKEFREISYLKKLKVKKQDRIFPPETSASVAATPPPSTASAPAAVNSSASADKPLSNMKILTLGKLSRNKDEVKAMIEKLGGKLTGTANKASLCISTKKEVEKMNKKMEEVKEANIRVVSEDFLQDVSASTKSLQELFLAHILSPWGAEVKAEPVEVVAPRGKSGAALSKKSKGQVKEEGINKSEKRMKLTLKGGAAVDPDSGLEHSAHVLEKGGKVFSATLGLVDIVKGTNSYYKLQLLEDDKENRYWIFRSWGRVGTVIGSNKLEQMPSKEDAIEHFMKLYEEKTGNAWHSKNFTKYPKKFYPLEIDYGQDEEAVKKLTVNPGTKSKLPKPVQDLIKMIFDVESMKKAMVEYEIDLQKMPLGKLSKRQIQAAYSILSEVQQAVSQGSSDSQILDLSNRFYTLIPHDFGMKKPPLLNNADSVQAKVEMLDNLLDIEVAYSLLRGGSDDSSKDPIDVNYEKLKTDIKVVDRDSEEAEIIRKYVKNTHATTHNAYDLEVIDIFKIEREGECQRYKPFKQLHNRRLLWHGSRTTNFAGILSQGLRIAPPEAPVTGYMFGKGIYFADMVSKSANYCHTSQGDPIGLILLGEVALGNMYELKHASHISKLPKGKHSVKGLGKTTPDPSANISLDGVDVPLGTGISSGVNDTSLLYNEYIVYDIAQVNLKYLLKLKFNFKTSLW
His-GST-PARP7, sequence (Q7Z3E1 whole entry): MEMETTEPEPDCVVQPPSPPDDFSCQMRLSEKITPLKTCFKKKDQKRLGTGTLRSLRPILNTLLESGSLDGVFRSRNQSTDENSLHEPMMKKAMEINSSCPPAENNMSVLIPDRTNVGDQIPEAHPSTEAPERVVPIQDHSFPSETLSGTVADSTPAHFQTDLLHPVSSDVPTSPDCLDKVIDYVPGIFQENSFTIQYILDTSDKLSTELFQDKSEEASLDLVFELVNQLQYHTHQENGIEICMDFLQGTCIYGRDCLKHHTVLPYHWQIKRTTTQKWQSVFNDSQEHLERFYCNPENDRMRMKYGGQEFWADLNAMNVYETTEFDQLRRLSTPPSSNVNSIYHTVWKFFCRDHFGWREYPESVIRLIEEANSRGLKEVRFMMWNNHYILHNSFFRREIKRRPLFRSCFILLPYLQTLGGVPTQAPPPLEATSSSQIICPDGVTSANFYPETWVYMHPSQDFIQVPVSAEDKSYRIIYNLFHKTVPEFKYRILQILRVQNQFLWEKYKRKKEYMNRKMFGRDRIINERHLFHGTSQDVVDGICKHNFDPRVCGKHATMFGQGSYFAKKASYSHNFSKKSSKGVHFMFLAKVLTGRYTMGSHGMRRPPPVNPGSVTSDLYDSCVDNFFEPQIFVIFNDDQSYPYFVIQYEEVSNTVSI
PARP2, sequence (Q9UGN5 whole entry): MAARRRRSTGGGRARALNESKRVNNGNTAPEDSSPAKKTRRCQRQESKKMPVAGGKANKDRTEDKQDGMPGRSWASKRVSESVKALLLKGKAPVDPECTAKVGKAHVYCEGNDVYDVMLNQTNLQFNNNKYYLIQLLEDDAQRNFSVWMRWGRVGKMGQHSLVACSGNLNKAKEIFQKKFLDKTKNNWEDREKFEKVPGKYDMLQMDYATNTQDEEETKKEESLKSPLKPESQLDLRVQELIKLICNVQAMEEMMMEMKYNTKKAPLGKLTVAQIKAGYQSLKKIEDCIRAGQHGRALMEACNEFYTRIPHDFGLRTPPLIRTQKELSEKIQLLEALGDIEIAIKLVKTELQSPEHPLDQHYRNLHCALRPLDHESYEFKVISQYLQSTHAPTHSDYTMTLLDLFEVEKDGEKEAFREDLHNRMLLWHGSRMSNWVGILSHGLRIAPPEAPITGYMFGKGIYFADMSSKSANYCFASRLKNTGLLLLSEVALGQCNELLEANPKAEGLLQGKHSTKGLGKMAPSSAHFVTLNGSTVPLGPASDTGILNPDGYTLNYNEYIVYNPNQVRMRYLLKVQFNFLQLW
endogenous PARP7, sequence (Q8C1B2 whole entry): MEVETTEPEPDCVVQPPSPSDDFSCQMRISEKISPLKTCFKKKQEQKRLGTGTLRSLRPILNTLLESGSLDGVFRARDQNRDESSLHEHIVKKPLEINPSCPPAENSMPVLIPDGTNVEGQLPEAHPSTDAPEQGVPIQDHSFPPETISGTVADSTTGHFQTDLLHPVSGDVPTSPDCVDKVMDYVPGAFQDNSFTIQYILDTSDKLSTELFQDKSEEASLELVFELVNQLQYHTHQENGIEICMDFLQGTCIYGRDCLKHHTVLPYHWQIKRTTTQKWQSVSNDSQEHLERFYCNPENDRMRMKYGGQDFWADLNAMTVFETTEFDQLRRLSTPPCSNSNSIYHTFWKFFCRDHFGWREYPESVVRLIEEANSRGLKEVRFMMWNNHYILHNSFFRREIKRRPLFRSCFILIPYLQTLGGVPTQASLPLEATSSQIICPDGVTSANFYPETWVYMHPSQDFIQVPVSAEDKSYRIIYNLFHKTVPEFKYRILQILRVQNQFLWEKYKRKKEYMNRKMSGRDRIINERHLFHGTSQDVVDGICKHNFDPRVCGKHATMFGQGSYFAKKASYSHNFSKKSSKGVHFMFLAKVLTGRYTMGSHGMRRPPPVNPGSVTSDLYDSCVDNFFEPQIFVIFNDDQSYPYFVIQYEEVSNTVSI
GFP-PARP7, sequence (Q7Z3E1 whole entry): as the sequence (Q7Z3E1 whole entry) above
HiBiT-PARP7, sequence (Q8C1B2 whole entry): as the sequence (Q8C1B2 whole entry) above

Row | SMILES | IC50 [15] [nM] | IC50 [16] [nM] | IC50 [17] [nM] | GI50 [18] [nM] | GI50 [19] [nM] | GI50 [20] [nM] | also measured
1 | C[C@@H](COCCC(=O)N1CCN(c2ncc(C(F)(F)F)cn2)CC1)Nc1cn[nH]c(=O)c1C(F)(F)F [RBN-2397] |  |  |  |  |  |  | STAT1 and pSTAT1 levels, time dependence ([1]; 300 nM): increase STAT1 and pSTAT1 in a time-dependent manner; STAT1 and pSTAT1 levels, dose dependence [1, 22]: increase STAT1 and phosphor-Tyr701-STAT1 (pSTAT1) in a dose-dependent manner; STING and pIRF3 levels, time dependence ([2]; 300 nM): decrease STING levels and increase pIRF3 levels in a time-dependent manner; STING degradation and signaling [2, 22]: induced STING degradation and signaling, but not to the same extent as a STING agonist; PARP7 levels, time dependence ([3]; 300 nM): increase PARP7 levels in a time-dependent manner; PARP7 levels, dose dependence [3, 22]: increase PARP7 levels in a dose-dependent manner; IFN-β levels [4]: increase IFN-β levels in a STING-dependent manner; type I interferon reporter levels [5]: increase type I interferon reporter levels in a dose dependent manner; nuclear PARP7 protein levels [6]: increases nuclear PARP7 protein levels; subcellular localisation of PARP7 [7]: PARP7 levels were only detected in nucleus; time to detectable increase in nuclear PARP7 levels [8]: ≤ 30 min; cell viability [9]: decreases viability; EC50 [10]: 17.8 nM; STAT1 and pSTAT1 levels [11]: dose-dependently increased STAT1 and pSTAT1 levels; endogenous PARP7 levels [12]: increased PARP7 levels; increase in PARP7 protein abundance compared to Example 10 ([12]; saturating doses): 2 fold; levels of secreted IFN-β ([13]; saturating doses): increased significantly the levels of secreted IFN-β to a greater extent than Example 10; magnitude of ISRE-Luc response compared to Example 10 [14]: ~2 fold
2 | N#Cc1ccc(N2CCN(C(=O)c3cncc(Cc4n[nH]c(=O)c5ccc(OC6CCC6)cc45)c3)CC2)nc1 [Example 177, 6-(4-(5-((7-Cyclobutoxy-4-oxo-3,4-dihydrophthalazin-1-yl)methyl)nicotinoyl)piperazin-1-yl)nicotinonitrile] | < 50 | 50 to 100 | 100 to 500 | < 100 | > 5000 | > 5000 | 
3 | CC#Cc1ccc2c(=O)[nH]nc(CNC(C)CC(=O)N3CCN(c4ncc(C(F)(F)F)cn4)CC3)c2c1 (stereo not drawn) [Example 191, 4-(((4-Oxo-4-(4-(5-(trifluoromethyl)pyrimidin-2-yl)piperazin-1-yl)butan-2-yl)amino)methyl)-6-(prop-1-yn-1-yl)phthalazin-1(2H)-one] | < 50 | > 2000 | > 2000 | 100 to 1000 | 1000 to 5000 | > 5000 | 
4 | N#Cc1ccc(N2CCN(C(=O)c3cccc(Cc4n[nH]c(=O)c5c(F)c(F)ccc45)c3)CC2)nc1 [Example 87, 6-(4-(3-((5,6-Difluoro-4-oxo-3,4-dihydrophthalazin-1-yl)methyl)benzoyl)piperazin-1-yl)nicotinonitrile] | < 50 | < 50 | < 50 | < 100 | 100 to 1000 | 100 to 1000 | 
5 | Cc1ccc2c(=O)c3cccc(CC(=O)O)c3oc2c1C [DMXAA] |  |  |  |  |  |  | STING levels [21]: decreased substantially STING levels; pTBK1 and pIRF3 [21]: induced robustly both pTBK1 and pIRF3
6 | N#Cc1ccc(N2CCN(C(=O)c3cccc(Cc4n[nH]c(=O)c5ccc(OC6CCC6)cc45)n3)CC2)nc1 [Example 176, 6-(4-(6-((7-Cyclobutoxy-4-oxo-3,4-dihydrophthalazin-1-yl)methyl)picolinoyl)piperazin-1-yl)nicotinonitrile] | < 50 | 50 to 100 | 100 to 500 | 100 to 1000 | > 5000 | 1000 to 5000 | 
7 | CC#Cc1ccc2c(=O)[nH]nc(Cc3ccc(F)c(C(=O)N4CCN(c5ccc(C#N)cn5)CC4)c3)c2c1C [Example 86, 6-(4-(2-Fluoro-5-((8-methyl-4-oxo-7-(prop-1-ynyl)-3,4-dihydrophthalazin-1-yl)methyl)benzoyl)piperazin-1-yl)nicotinonitrile] | < 50 | 50 to 100 | 500 to 2000 | < 100 | 1000 to 5000 | > 5000 | 
8 | CCc1ccc(NC(=O)Nc2c[nH]c3ccccc23)cc1 [Example H-151] |  |  |  |  |  |  | PARP7 inhibitor-induced induction of IFN-β [13]: completely blocked

Reference: patent US20260055079A1, “PHTHALAZINONE COMPOUNDS AS PARP7 INHIBITORS” (AZKARRA THERAPEUTICS, INC., priority 2022, published 2026)
